Source: patent publication US20230257385A1, “SALT AND SOLID FORMS OF TABERNANTHALOG” (priority 2021, published 2023)

Tests used:
[1] = Solubility determinations in SIF buffers FaSSIF, FeSSIF, FaSSGF (Example 8, Experiment 5); settings: 37 °C, thermodynamic from solid
Summary of the method: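 Suspensions in FaSSIF, FeSSIF or FaSSGF held at 37° C for 24 h, sampled at set time points and centrifuged. Pellets checked by XRPD, wet and dried, for form change.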

[2] = Dynamic vapour sorption (DVS) of selected salts (Example 8); type: physicochemical; settings: 0 to 90 to 0% RH, 25° C., dm/dt 0.002%/min
Summary of the method: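 Sorption/desorption isotherms on 20–50 mg sample at 25°C after 60 min at 0% RH: 5% steps to 30%, 10% steps to 90%, then reverse. Equilibrium criterion dm/dt 0.002%/min; kinetic and isotherm curves derived.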

[3] = DVS analyses of the monofumarate salt (Example 5, Experiment Reference 4); type: physicochemical; settings: mass equilibrated, 0 to 90% to 0% RH, 25° C.
Description: (§1) The moisture sorption properties of the feed API were analyzed by DVS Intrinsic instrument (Surface Measurement System). Approximately 20 to 50 mg of API was weighed onto an aluminum pan and loaded into the instrument equilibrated at 25° C. The sample was equilibrated under a dry atmosphere (0% relative humidity) for 60 minutes, before increasing the humidity from 0% to 30% at 5% step increment and from 30% to 90% at 10% step increment. A desorption cycle was also applied from 90% to 30% (10% step decrement) and from 30% to 0% (5% step decrement). A rate of change in mass per time unit (dm/dt) of 0.002%/min was set as the equilibrium parameter. Kinetic and isotherm graphs were calculated.
as §1, with “feed API (active pharmaceutical ingredient) were analyzed” for “feed API were analyzed”, “step decrement). […] Kinetic and” for “step decrement). A rate of change in mass per time unit (dm/dt) of 0.002%/min was set as the equilibrium parameter. Kinetic and”, “were calculated. […]” for “were calculated.”

[4] = Equilibrium humidity evaluation 75% RH/40° C., 10 days (Example 8, Experiment 6); type: physicochemical; settings: 75% RH/40° C.
Summary of the method: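 Tabernanthalog salt powders (100 mg) were spread evenly in open vials and held at 40 °C and 75% RH. Sub-samples taken at 5 and 10 days were analysed by ^1H NMR, HPLC, XRPD, DSC, TGA and PLM for phase change, chemical degradation and residual solvent.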

[5] = Heat-up/cool-down crystallisation screen of sorbate salt (Example 10, Experiments 5, 8); type: physicochemical; settings: Experiment 8; repeat of HUCD crystallisations aiming at Pattern #1 (water) and Pattern #6 (heptane/ethyl formate); wet pellet
Description: The relevant solvent (0.225 ml, 3.0 vol) was added to the appropriate vial and the suspensions were stirred and warmed to temperature. If dissolution was not observed, further solvent was added until the solute dissolved, or aliquots of a secondary co-solvent were added to complete dissolution. Once dissolved, the solutions were left to cool down and stand undisturbed under sub-ambient conditions for several days. After crystallisation was judged complete, the products were isolated by centrifugation and the pellets were dried at 40° C. under reduced pressure. Products from the crystallisation (wet and dry) were initially analysed by XRPD (9-minute method), further analyses of certain products were performed by ^1H NMR, DSC and TGA, if the diffraction pattern indicated differences.

[6] = as above; type: physicochemical; settings: Experiment 8; repeat of HUCD crystallisations; dried ca. 2 h under N2 flux at ambient temperature
[7] = target: 5-HT2A (Homo sapiens, UniProt P28223); settings: reported by Dong et al., Olson et al., Cameron et al.; cited from earlier work
[8] = Calibration curve of non-ionized Tabernanthalog / HPLC sample diluent selection; type: physicochemical; settings: acetonitrile/water
Description: Separate portions of Tabernanthalog (native) were weighed out into aluminum boats and were charged to the relevant volumetric flasks. […] Peak areas of the calibrants were plotted against concentration to generate the corresponding calibration curve with slope 27622 and R^2 0.9917 (FIG. 437).
It is noted that tabernanthalog is insoluble in typical HPLC sample diluents, acetonitrile/water. Therefore, DMSO and water were investigated as sample diluents.
Thus, DMSO/water (1/1, v/v) was selected as the appropriate diluent composition to perform the study and generate the calibration curve, for the SIF panel solubility.

[9] = reported by Dong et al., Olson et al., Cameron et al.; cited from earlier work

Sequence of 5-HT2A (P28223 whole entry): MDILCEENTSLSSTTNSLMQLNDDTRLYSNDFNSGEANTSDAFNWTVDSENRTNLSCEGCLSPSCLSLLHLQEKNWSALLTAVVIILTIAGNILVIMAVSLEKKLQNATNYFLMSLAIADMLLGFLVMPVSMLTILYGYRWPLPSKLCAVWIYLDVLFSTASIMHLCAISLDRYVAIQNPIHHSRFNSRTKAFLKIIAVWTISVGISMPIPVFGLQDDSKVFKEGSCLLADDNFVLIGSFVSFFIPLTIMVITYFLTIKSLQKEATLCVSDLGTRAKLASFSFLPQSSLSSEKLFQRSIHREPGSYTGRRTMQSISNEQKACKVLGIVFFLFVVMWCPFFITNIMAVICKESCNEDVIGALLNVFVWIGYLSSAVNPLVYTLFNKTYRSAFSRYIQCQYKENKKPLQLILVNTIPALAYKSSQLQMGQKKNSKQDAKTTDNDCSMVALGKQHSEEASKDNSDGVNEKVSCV

## COc1ccc2c3c([nH]c2c1)CCN(C)CC3.O=C(O)/C=C/C(=O)O [8-Methoxy-3-methyl-2,4,5,6-tetrahydro-1H-azepino[4,5-b]indole fumarate salt (polymorph Form A)]
[1]; pH 1.6, fassgf or other biorelevant
  solubility at 24 h: > 30 mg/mL
[1]; pH 5, fessif
  solubility at 24 h: > 30 mg/mL
[1]; pH 6.5, fassif
  solubility at 24 h: > 30 mg/mL
[2]
  DVS sorption/desorption isotherm: hygroscopic isotherm, with negligible hysteresis
[3]
  DVS isotherm: hygroscopic isotherm with negligible hysteresis
[4]; after 10 days
  change in chemical purity (trended HPLC): slight decrease in chemical purity
[4]; t=5 d and t=10 d
  water uptake / hydrate formation (TGA, DSC): no significant water uptake
[4]; t=5 days and t=10 days
  powder diffraction pattern versus input (form stability): resembled the input phase

## CC=CC=CC(=O)O.COc1ccc2c3c([nH]c2c1)CCN(C)CC3 [Experiment 8-Sample B]
[5]
  XRPD (centrifuged, wet): Form A
[6]
  XRPD (under nitrogen flow): Form A

## COc1ccc2c3c([nH]c2c1)CCN(C)CC3 [tabernanthalog, 8-methoxy-3-methyl-1,2,3,4,5,6-hexahydroazepino[4,5-b]indole]
[7]
  5-HT2A activity: have 5-HT2A activity
[8]
  solubility in typical HPLC sample diluents: insoluble
[9]
  hallucinogenic effect: non-hallucinogenic
